Measurements: US20120276070A1, “Induced Pluripotent Stem Cells and Related Methods” (VITRO DIAGNOSITICS, INC., priority 2009, published 2012)
No end group written: not given here.

Key:
POU5F1 (Oct3/4) = POU5F1 (Oct3/4) expression after adding small molecules to the adult stem cell culture medium; format: cell-based
native human MSC = assay: Puromycin dose-response / selection: killing of native, non-transfected human MSC; format: cell-based; details: 10 μg/ml puromycin in medium
Description: Human mesenchymal stem cells (Vitro Diagnostics, Inc., catalog number SC00A1) were cultured at 7500/cm^2 in T25 flasks (Greiner Bio-One catalog number 690-190) following coating at 2 μg/cm^2 with poly-L-lysine (Sigma Catalog number P1399) using low serum complete MSC cell culture medium (Vitro Diagnostics, Inc., catalog number SC00B1). Cultures were maintained here and throughout this study in a 5% O2, 5% CO2, balance N2 gas environment in a humidified chamber maintained at 37° C. Following two days of continuous culture and at about 40% confluence, the cultures were exposed to 1/15 dilution of the POU5-F1 pseudovirus stock in low serum medium containing 5 μg/ml polybrene (Sigma catalog number H9268). Following 10 hours exposure to the pseudovirus particles, the cultures were washed twice with PBS and cultured in low serum medium (Vitro SC00B1). Selection of stable transfectants began 16 hours later using 3 to 10 μg/ml puromycin (Sigma catalog number P7255) which was a sufficient concentration to kill native, non-transfected human MSC. Single colony clones were established by limited dilution cloning in 96 well plates (Greiner Bio-One, catalog number 655-160) using low serum MSC medium (Vitro Diagnostics, Inc., catalog number SC00B1) containing 10 μg/ml puromycin. […]

[1] = added to the medium at 1 to 2 mM

Nc1ncn([C@@H]2O[C@H](CO)[C@@H](O)[C@H]2O)c(=O)n1 [5-azacytidine]
POU5F1 (Oct3/4) expression (POU5F1 (Oct3/4); added to the medium at 0.5 mM, transient periods </=48 hours): increased POU5F1 (Oct3/4) expression

C[C@]12CCC(=O)C=C1CC[C@@H]1[C@@H]2[C@@H](O)C[C@@]2(C)[C@H]1CC[C@]2(O)C(=O)CO [Hydrocortisone, hydrocortisone]
POU5F1 (Oct3/4) expression (POU5F1 (Oct3/4); added to the medium, preferably at 80 to 110 nM): increased POU5F1 (Oct3/4) expression

O=C1O[C@H]([C@@H](O)CO)C(O)=C1O [Vitamin C, ascorbic acid]
POU5F1 (Oct3/4) expression (POU5F1 (Oct3/4); added to the medium at 60 μM): increased POU5F1 (Oct3/4) expression

COc1ccc(C[C@H](N)C(=O)N[C@H]2[C@@H](O)[C@H](n3cnc4c(N(C)C)ncnc43)O[C@@H]2CO)cc1 [puromycin]
effect on wild type MSCs (native human MSC): lethal

CCCC(=O)[O-].[Na+] [sodium butyrate]
POU5F1 (Oct3/4) expression (POU5F1 (Oct3/4); [1]): increased POU5F1 (Oct3/4) expression

CCCC(CCC)C(=O)O [valproic acid]
POU5F1 (Oct3/4) expression (POU5F1 (Oct3/4); [1]): increased POU5F1 (Oct3/4) expression

gonadotropin releasing hormone (QHWSYGLRPG; ends and bridges not checked; UniProt P01148 24-33, looked up) [GnRH]
POU5F1 (Oct3/4) expression (POU5F1 (Oct3/4); added to the medium at 75 pg/ml): increased POU5F1 (Oct3/4) expression
